# Measured values as given in PMC8657435, “Adamantane-Substituted Purines and Their β-Cyclodextrin Complexes: Synthesis and Biological Activity” (International Journal of Molecular Sciences, 2021).
# Several values for one entry are separate records, joined by “and”; a condition that tells them apart may be missing. Identical values can stand only once. Like-named read-outs stand apart in the source and are kept apart here.
# Tests used:
# CDK2/cyclin E [1] = target: T1, CDK2/cyclin E (Homo sapiens, UniProt P24941); test: CDK2/cyclin E kinase inhibition assay ([γ-33P]ATP, peptide substrate); assay type: biochemical
# Procedure: CDK2/cyclin E activity was assayed as previously described. Briefly, the kinase was assayed with [γ-^33P]ATP and suitable peptide substrates in a reaction buffer (60 mM HEPES-NaOH, pH 7.5, 3 mM MgCl2, 3 mM MnCl2, 3 μM Na-orthovanadate, 1.2 mM DTT, 2.5 μg/50 μL PEG20.000). The reactions were stopped by adding 5 µL of 3% aq. H3PO4. Aliquots were spotted onto P-81 phosphocellulose, washed with 0.5% aq. H3PO4 and air-dried. Kinase inhibition was quantified using an FLA-7000 digital image analyser.
# MCF-7 [2] = test: In vitro cytotoxicity / antiproliferative activity, resazurin viability assay, 72 h; assay type: cell-based, human
# K-562 [3] = test: as above; assay type: cell-based, human
# K-562 [4] = system: K-562; set-up: method as in Popowycz et al. [51]; details: single purine; ref Popowycz et al. [51]; cited from earlier work
# MCF-7 [5] = system: MCF-7; set-up: method as in Popowycz et al. [51]; details: single purine; ref Popowycz et al. [51]; cited from earlier work
# CDK2 = details: no inhibition activity; read-out: IC50 towards CDK2; cited from earlier work
# CDK1 = system: CDK1; set-up: method as in PMID 24900429; details: no inhibition activity; read-out: IC50 towards CDK1; cited from earlier work
# CDK2/cyclin E [6] = target: T1, CDK2/cyclin E; details: Figure 1; cited from earlier work
# [7] = mixture purine·β-CD 1:1 molar ratio, read-out: CDK2/Cyclin E IC50, Purine·β-CD (1:1)
# [8] = mixture purine·β-CD 1:10 molar ratio, read-out: CDK2/Cyclin E IC50, Purine·β-CD (1:10)
# [9] = single purine, no β-CD, mean ± SD of duplicated experiments, read-out: CDK2/Cyclin E IC50, Purine
# [10] = Homo sapiens, MCF7, single purine, 72 h, read-out: MCF-7 GI50, Purine
# [11] = mixture purine·β-CD 1:1, 72 h, read-out: MCF-7 GI50, Purine·β-CD (1:1)
# [12] = mixture purine·β-CD 1:10, 72 h, read-out: MCF-7 GI50, Purine·β-CD (1:10)
# [13] = Homo sapiens, K562, single purine, 72 h, read-out: K-562 GI50, Purine
# [14] = mixture purine·β-CD 1:1, 72 h, read-out: K-562 GI50, Purine·β-CD (1:1)
# [15] = mixture purine·β-CD 1:10, 72 h, read-out: K-562 GI50, Purine·β-CD (1:10)
# [16] = mixture purine·β-CD 1:1 molar ratio
# [17] = mixture purine·β-CD 1:10 molar ratio
# [18] = single purine, no β-CD, mean ± SD of duplicated experiments
IC50 (CDK2/cyclin E [1]; [7]),IC50 (CDK2/cyclin E [1]; [8]),IC50 (CDK2/cyclin E [1]; [9]),melting point,SMILES,GI50 (MCF-7 [2]; [10]),GI50 (MCF-7 [2]; [11]),GI50 (MCF-7 [2]; [12]),GI50 (K-562 [3]; [13]),GI50 (K-562 [3]; [14]),GI50 (K-562 [3]; [15]),"CDK2/Cyclin E IC50, Purine·β-CD (1:1) (CDK2/cyclin E [1]; [16])",also measured
5.5 ± 1.3 µM,> 40 µM,2.55 ± 0.08 µM,–,"CC(C)n1cnc2c(Nc3cccc(C(=O)C45CC6CC(CC(C6)C4)C5)c3)nc(NCCCO)nc21 [Compound 4a, (1-Adamantyl)[3-({2-[(3-hydroxypropyl)amino]-9-isopropyl-9H-purin-6-yl}amino)phenyl]methanone]",> 6.25 µM,15.7 ± 0.9 µM,> 40 µM,6.16 µM,15 ± 0.16 µM,> 40 µM,–,–
0.16 µM,0.3 ± 0.2 µM,0.21 ± 0.02 µM,88 to 93 °C,"CC(C)n1cnc2c(Nc3cccc(C(O)C45CC6CC(CC(C6)C4)C5)c3)nc(NCCCO)nc21 (stereo not drawn) [Compound 4b, 3-{[6-({3-[1-Adamantyl(hydroxy)methyl]phenyl}amino)-9-isopropyl-9H-purin-2-yl]amino}propan-1-ol]",> 6.25 µM,32 ± 3 µM,> 40 µM,> 6.25 µM,34.69 ± 0.14 µM,> 40 µM,essentially consistent with their non-complexed forms,"Activity on CDK2/cyclin E, fold higher than bohemine (CDK2/cyclin E [1]; single purine, versus bohemine (4k)): 3.5 fold"
> 40 µM,> 40 µM,> 12.5 µM,–,"CC(C)n1cnc2c(Nc3ccc(CC45CC6CC(CC(C6)C4)C5)cc3)nc(NCCCO)nc21 [Compound 4f, 3-{[6-{[4-(1-Adamantylmethyl)phenyl]amino}-9-isopropyl-9H-purin-2-yl]amino}propan-1-ol]",> 12.5 µM,32.9 ± 0.1 µM,> 40 µM,10.4 ± 0.7 µM,24 ± 3 µM,> 40 µM,no activity,"CDK2/Cyclin E IC50, Purine·β-CD (1:10) (CDK2/cyclin E [1]; [17]): no activity; CDK2/Cyclin E IC50, Purine (CDK2/cyclin E [1]; [18]): no activity"
> 40 µM,> 40 µM,> 12.5 µM,72 to 78 °C,"CC(C)n1cnc2c(Nc3cccc(CCC45CC6CC(CC(C6)C4)C5)c3)nc(NCCCO)nc21 [Compound 4h, 3-{[6-({3-[2-(1-Adamantyl)ethyl]phenyl}amino)-9-isopropyl-9H-purin-2-yl]amino}propan-1-ol]",> 12.5 µM,> 40 µM,> 40 µM,> 12.5 µM,> 40 µM,> 40 µM,no activity,"CDK2/Cyclin E IC50, Purine·β-CD (1:10) (CDK2/cyclin E [1]; [17]): no activity; CDK2/Cyclin E IC50, Purine (CDK2/cyclin E [1]; [18]): no activity"
> 40 µM,30.7 µM,> 10 µM and 14 µM,64 to 69 °C,CC(C)n1cnc2c(NCc3cccc(C(=O)CC45CC6CC(CC(C6)C4)C5)c3)nc(NCCCO)nc21 [Compound 4i],> 6.25 µM,30 ± 5 µM,> 40 µM,> 6.25 µM,19.8 ± 0.5 µM,> 40 µM,–,–
15.7 µM,20.9 µM,3.26 ± 0.01 µM,–,CC(C)n1cnc2c(NCc3ccc(C(=O)CC45CC6CC(CC(C6)C4)C5)cc3)nc(NCCCO)nc21 [Compound 4j],> 6.25 µM,21.51 ± 0.04 µM,> 40 µM,> 6.25 µM,17.7 ± 0.6 µM,> 40 µM,–,"Activity on CDK2/cyclin E, fold higher than meta-analogue 4i (CDK2/cyclin E [1]; single purine, para versus meta): 4.3 fold"

# Further lines, the compound ahead of its results:
SMILES,IC50 (CDK2/cyclin E [1]; [7]),IC50 (CDK2/cyclin E [1]; [8]),IC50 (CDK2/cyclin E [1]; [9]),melting point,GI50 (MCF-7 [2]; [10]),GI50 (MCF-7 [2]; [11]),GI50 (MCF-7 [2]; [12]),GI50 (K-562 [3]; [13]),GI50 (K-562 [3]; [14]),GI50 (K-562 [3]; [15]),"CDK2/Cyclin E IC50, Purine·β-CD (1:1) (CDK2/cyclin E [1]; [16])",also measured
"CC(C)n1cnc2c(Nc3cccc(CC45CC6CC(CC(C6)C4)C5)c3)nc(NCCCO)nc21 [Compound 4c, 3-{[6-{[3-(1-Adamantylmethyl)phenyl]amino}-9-isopropyl-9H-purin-2-yl]amino}propan-1-ol]",1.85 µM,> 40 µM,> 10 µM and 12 µM,88 to 93 °C,> 6.25 µM,> 40 µM,> 40 µM,> 6.25 µM,28.7 ± 10.2 µM,> 40 µM,–,–
"CC(C)n1cnc2c(Nc3ccc(C(=O)C45CC6CC(CC(C6)C4)C5)cc3)nc(NCCCO)nc21 [Compound 4d, (1-Adamantyl)[4-({2-[(3-hydroxypropyl)amino]-9-isopropyl-9H-purin-6-yl}amino)phenyl]methanone]",1.4 ± 0.5 µM,7.57 µM,0.6 ± 0.2 µM,–,5.72 µM,13.8 ± 1.4 µM,> 40 µM,5.45 µM,16.5 ± 0.7 µM,> 40 µM,–,"IC50 (CDK2/cyclin E [1]; single purine, read-out: CDK2/cyclin E IC50): 0.58 µM; Efficacy on MCF-7, fold higher than bohemine (MCF-7 [2]; single purine): 4.7 fold; Efficacy on MCF-7, fold higher than roscovitine (MCF-7 [2]; single purine): 2.2 fold; Fold more potent at inhibiting cell proliferation on K-562 than bohemine (K-562 [3]; single purine): 17.8 fold; Fold more potent at inhibiting cell proliferation on K-562 than roscovitine (K-562 [3]; single purine): 9.2 fold"
"CC(C)n1cnc2c(Nc3ccc(C(O)C45CC6CC(CC(C6)C4)C5)cc3)nc(NCCCO)nc21 (stereo not drawn) [Compound 4e, 3-{[6-({4-[1-Adamantyl(hydroxy)methyl]phenyl}amino)-9-isopropyl-9H-purin-2-yl]amino}propan-1-ol]",1.53 µM,26.1 µM,1.6 ± 0.7 µM,–,8.1 ± 0.7 µM,17 ± 2 µM,> 40 µM,10.1 ± 0.8 µM,18.7 ± 0.6 µM,> 40 µM,essentially consistent with their non-complexed forms,–
"CC(C)n1cnc2c(Nc3cccc(C(O)CC45CC6CC(CC(C6)C4)C5)c3)nc(NCCCO)nc21 (stereo not drawn) [Compound 4g, 3-{[6-({3-[2-(1-Adamantyl)-1-hydroxyethyl]phenyl}amino)-9-isopropyl-9H-purin-2-yl]amino}propan-1-ol]",1.24 µM,7.15 µM,0.92 ± 0.18 µM,87 to 91 °C,> 6.25 µM,17 ± 2 µM,> 40 µM,> 6.25 µM,33.6 ± 1.2 µM,> 40 µM,essentially consistent with their non-complexed forms,–
"CC[C@H](CO)Nc1nc(NCc2ccccc2)c2ncn(C(C)C)c2n1 [Compound 4l, roscovitine]",–,–,–,–,–,–,–,–,–,–,–,GI50 (K-562 [4]): 50.1 µM; GI50 (MCF-7 [5]): 12.6 µM
"CC(C)n1cnc2c(NC34CC5CC(CC(C5)C3)C4)nc(NCCCO)nc21 [Compound 4m, 6-[(1-adamantyl)amino]-2-[(3-hydroxypropyl)amino]-9-(propan-2-yl)purine]",–,–,–,–,–,–,–,–,–,–,–,IC50 (CDK2): > 100 µM; IC50 (CDK1): > 100 µM; IC50 (CDK2/cyclin E [6]): > 100 µM
CC(C)n1cnc2c(NC34CC5CC(CC(C5)C3)C4)nc(NCC(O)CO)nc21 (stereo not drawn) [Compound 4n],–,–,–,–,–,–,–,–,–,–,–,IC50 (CDK2/cyclin E [6]): > 100 µM
